# Patent US8022235B2, “Compositions of phospholipid ether boronic acids and esters and methods for their synthesis and use” (Cellectar, Inc., priority 2007, dated 2011)
# Tests used:
# [1] = test system: PC3 human prostate cancer xenografts; assay: Single-dose 125I-NM404 treatment, tumor volume, PC3 xenografts; assay type: in vivo, SCID mice; settings: single dose 250 μCi and 500 μCi, n=6 per group
# Method: Tumor volumes were calculated using formula (width)^2×(length)/2 and expressed as mean±SEM, n=6 for each group. ⋄ Cold NM404, control;
# (§1) The inventors have previously shown that ^125I-labeled PLE analogs such as NM404 are effective in targeting tumor therapies to tumor cells following single injection and fractionated dosing. For assessment of efficacy of ^125I-NM404 treatment, assessments of tumor volume were made until 10 weeks post-injection or until no animal in the control group was alive, whatever came first. Summarizing the results, control animals show rapidly growing tumors over the 10-week assessment period. See, FIGS. 2 and 3. […] Tumor volumes are stable and the same tumors appear “collapsed” (the tumor surface has caved in). Additionally, the hair above the tumors fell off confirming substantial accumulation of radioactivity in these tumors, FIG. 4. […] (See also, for example, U.S. patent application Ser. No. 11/671,403 hereby incorporated in its entirety for all purposes.)
# [2] = test system: A549 human non-small cell lung cancer xenografts; assay: Single-dose 125I-NM404 treatment, tumor volume, A549 xenografts; assay type: in vivo, SCID mice
# Description: FIG. 3 illustrates antitumor effect of single-dose treatment with ^125I-125-NM404 at doses of 50 (∘), 150 (□), 250 (⋄) and 500 (∘) μCi in SCID mice bearing A549 human non-small cell lung cancer xenografts. In FIG. 3, control animals show rapidly growing tumors over the 10-week assessment period. […] Tumor volumes are stable and some tumors appear “collapsed” (the tumor surface has collapsed). Additionally, hair above the tumors fell off confirming substantial accumulation of radioactivity in these tumors.
# FIG. 4 is an image showing one of the tumor-bearing animals treated with 250 μCi of ^125I-NM404 at 4 weeks following injection. The hair above the tumor has fallen off, apparently due to the significant accumulation of radioactivity in the tumor. […] The measurement method for determining outer tumor dimensions may have underestimated tumor volume response following dosing with ^125I-NM404;
# as §1
# Adrenal RL-251 = assay: Imaging and tissue distribution, tumor model; assay type: in vivo, SCID Mouse; settings: days 1 through 14
# SCC1 and 6 = assay: Imaging and tissue distribution, tumor model; tumor regression; assay type: in vivo
# Description: (§2) During the course of mouse tumor uptake and retention studies with “imaging” doses (15-20 μCi/20 g mouse) of ^125I-labeled NM404, several apparent therapeutic responses have been observed (unpublished results). […] Some of these animals also lost all hair above larger mammary tumors at around 8 days after injection. Moreover, these mice also get intestinal tumors and usually suffer from intestinal bleeding resulting in severe anemia, which renders their feet white. […] Another compelling example of tumor regression is illustrated in FIG. 13. Two litter mates each received SCC1 and SCC6 xenografts in their left and right flanks, respectively. One mouse received a single injection of ^125I-NM404 (20 μCi). […] These coincidental findings were reconfirmed in two separate age-matched groups each involving more than 6 mice.
# Mammary SCC and ACC = assay: Imaging and tissue distribution, tumor model; therapeutic responses at imaging doses; assay type: in vivo, Apc^Min/+mouse; settings: single intravenous injection, ^125I-labeled, imaging dose 15-20 μCi/20 g mouse
# Description: as §2
# animal tumor models = assay: Imaging and biodistribution across animal tumor models (general statements)
# Description: See, for example, U.S. patent application Ser. Nos. 10/906,687, 11/177,740, 11/316,620 and 11/382,645. Due to deficiencies in metabolic phospholipase enzymes in the membranes of malignant tumor cells, the prevailing hypothesis for this specificity is that phospholipid ether analogs become trapped exclusively in tumor cell membranes because of their inability to become metabolized and eliminated by the cancerous cell. Thus, the differential clearance rates of phospholipid ethers from normal cells versus neoplastic tumor cells are responsible for this specificity.
# The reason for the retention of PLE and analogs in cancer cells remains unknown. Without being held to any particular theory, however, the prevailing hypothesis, is that radioiodinated PLE and APC analogs become trapped in tumor cell membranes because of their inability to be metabolized and eliminated. On the other hand, such lipid molecules are metabolized and cleared by normal tissues, including the liver.
# These PLE analogs are specifically designed to incorporate aromatic radioiodine in order to render the molecule stable towards in vivo deiodination.
structure (smiles),measurement,setting,value
C[N+](C)(C)CCOP(=O)([O-])OCCCCCCCCCCCCCCCCCCc1ccc([125I])cc1 [^125I-NM404],change in tumor volume / primary tumor growth,[1],significant effects in inhibiting the progression of primary tumor growth
same,tumor volume vs control,[2]; 50 μCi dose group,did not show any difference when compared with control animals
same,tumor volume vs control,"[2]; 150, 250 and 500 μCi dose groups",substantial and prolonged treatment effect
same,effect on the tumor (appearance),"[2]; 250 μCi, 4 weeks following injection (FIG. 4)",causes central necrosis
same,dose dependence of effect on tumor volume,[2]; single dose 50-500 μCi,dose-linear effect
same,tumor volume vs control,[2]; single dose 50 and 150 μCi (FIG. 3 legend),did not show any difference when compared to control animals
same,tumor volume vs control,[2]; single dose 250 and 500 μCi (FIG. 3 legend),substantial and prolonged treatment effect
same,"tissue distribution, blood, spleen and kidney",Adrenal RL-251,"distribution in blood, spleen and kidney reduced"
same,"tissue distribution, tumor",Adrenal RL-251,accumulation in the tumor increased
same,tumor regression,SCC1 and 6; by day 41 after injection (FIG. 12),significantly reduced
same,health of treated animal,SCC1 and 6; single injection 20 μCi,quite healthy 80 days after injection
same,tumor regression,"SCC1 and 6; single injection 20 μCi, SCC1 and SCC6 flank xenografts, untreated litter mate died 21 days later",regressed significantly
same,tumor growth,Mammary SCC and ACC,tumor growth remains static
same,time over which tumors could be imaged,animal tumor models; mammary and prostate tumors in mice,> 60 days
same,duration of tumor retention,"animal tumor models; mice, post-injection",20 to 60 days
